Experiment [1] deals with Hedgehog pathway activation on 10T1/2/Smo#3 cells (C3H10T1/2 cells transfected with human Smoothened receptor). Put plainly: Hedgehog pathway activation on 10T1/2/Smo#3 cells measured by ALP activity. It is filed as cell-based. To be noted: Mus musculus, C3H 10T1/2, 10T1/2/Smo#3 cells. The procedure, abridged: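 Inhibition of alkaline phosphatase induction, read fluorometrically from 4-methylumbelliferyl phosphate conversion, gave IC50 values; CellTiter-Blue tracked viability in parallel. Cells were the human Smo-transfected 10T1/2/Smo#3 pool, stimulated by 10-20% hShh conditioned medium or the Smo agonist SAG (500 nM).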

Experiment [2] deals with Hedgehog pathway activation (GLi-luciferase reporter) in Shh Light II reporter cells. The experiment can be described thus: Hedgehog pathway activation on Shh Light II reporter cells measured by luciferase activity. Format: cell-based. The method in brief:
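Shh Light II reporter cells carrying a hedgehog-responsive GLi-luciferase reporter were stimulated either with 500 nM SAG, a direct Smoothened agonist, or with conditioned media containing human Sonic Hedgehog (hShh). Test compounds were evaluated for blocking this pathway activation, quantified by luciferase activity. Cell viability was monitored in parallel with the Celltiter-Blue® assay.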

Where [3] appears, read: measured by ALP activity, read-out: ALP (IC50, inhibition of Hedgehog pathway activation).
[4] abbreviates: Mus musculus, Shh Light II, hShh activation, read-out: Shh (IC50, inhibition of Hedgehog pathway activation).
The mark [5] stands for this setting: hShh activation, ALP activity, read-out: 10T1/2/Smo#3 ALP activity (hShh Activation).
[6] abbreviates: Mus musculus, Shh Light II, SAG activation (500 nM SAG), read-out: Shh Light II luciferase activity (SAG activation).
The mark [7] stands for this setting: Mus musculus, Shh Light II, hShh activation, read-out: Shh Light II luciferase activity (hShh activation).

pIC50: −log10 of the molar value. Like-named read-outs stand apart in the source and are kept apart here.

With `CC(C)(C)C(=O)Nc1cc(-c2cn3nc(-c4ccc(F)cc4)ccc3n2)ccc1C(F)(F)F` [Example 143, N-(5-(6-(4-fluorophenyl)imidazo[1,2-b]pyridazin-2-yl)-2-(trifluoromethyl)phenyl)pivalamide], the values for the pIC50 in experiment [1] (setting [3]) and in experiment [2] (setting [4]) were 5.57 and 6.33, respectively.

Turning to `Cc1ccc(-c2cn3ncccc3n2)cc1NC(=O)CC(C)(C)C` [Example 108, N-(5-(imidazo[1,2-b]pyridazin-2-yl)-2-methylphenyl)-3,3-dimethylbutanamide], the pIC50 in experiment [1] (setting [3]) was 5.28; in experiment [2] (setting [4]), 5.61.

Take `CCC(C)(C)C(=O)Nc1cc(-c2cn3nc(-c4cccnc4C(F)(F)F)ccc3n2)c(F)cc1Cl` [Example 659, N-(2-chloro-4-fluoro-5-(6-(2-(trifluoromethyl)pyridin-3-yl)imidazo[1,2-b]pyridazin-2-yl)phenyl)-2,2-dimethylbutanamide]: the results for the pIC50 in experiment [1] (setting [3]) and in experiment [2] (setting [4]) were 7.12 and 7.66, respectively.

Consider `Cc1ccc(-c2cn3nc(-c4cccc(C=CC(=O)O)c4)ccc3n2)cc1NC(=O)C(C)(C)C` [compound 554], for which the pIC50 in experiment [1] (setting [5]) was 5.52 to 6.52; in experiment [1] (setting [3]), 5.92; in experiment [2] (setting [6]) it was 4.52 to 5.52; in experiment [2] (setting [4]), 6.50; in experiment [2] (setting [7]), greater than 6.52.

With `Cc1ccccc1-c1ccc2nc(-c3ccc(C(F)(F)F)c(NC(=O)C(C)(C)C)c3)cn2n1` [Example 241, N-(5-(6-o-tolylimidazo[1,2-b]pyridazin-2-yl)-2-(trifluoromethyl)phenyl)pivalamide], the pIC50 in experiment [1] (setting [3]) was 7.02; in experiment [2] (setting [4]), 6.68.

As to `Cc1ccc(-c2cn3nc(-c4ccc(C(N)=NO)cc4Cl)ccc3n2)cc1NC(=O)C(C)(C)C` [compound 568], the pIC50 in experiment [1] (setting [3]) and in experiment [2] (setting [4]) was 7.00 each time.

In the case of `CCOc1ccc2nc(-c3ccc(C(F)(F)F)c(S(=O)(=O)NCc4ccc(F)cc4)c3)cn2n1` [Example 213, 5-(6-ethoxyimidazo[1,2-b]pyridazin-2-yl)-N-(4-fluorobenzyl)-2-(trifluoromethyl)benzenesulfonamide], the pIC50 is 5.41 in experiment [1] (setting [3]) and less than 5.00 in experiment [2] (setting [4]).

On to `CC(C)(C)C(=O)Nc1cc(-c2cn3nc(N4CCOCC4)ccc3n2)ccc1C(F)(F)F` [Example 232, N-(5-(6-morpholinoimidazo[1,2-b]pyridazin-2-yl)-2-(trifluoromethyl)phenyl)pivalamide], for which the pIC50 is 6.38 in experiment [1] (setting [3]) and 6.37 in experiment [2] (setting [4]).

For `CC(C)(C(=O)Nc1cc(-c2cn3nc(-c4cccnc4C(F)(F)F)ccc3n2)ccc1Cl)C(F)(F)F` [Example 665, N-(2-chloro-5-(6-(2-(trifluoromethyl)pyridin-3-yl)imidazo[1,2-b]pyridazin-2-yl)phenyl)-3,3,3-trifluoro-2,2-dimethylpropanamide], the pIC50 in experiment [1] (setting [3]) is 6.92; in experiment [2] (setting [4]), 7.72.

`CCOc1ccc2nc(-c3ccc(C(F)(F)F)c(NC(=O)C4CCCC4)c3)cn2n1` [Example 189, N-(5-(6-ethoxyimidazo[1,2-b]pyridazin-2-yl)-2-(trifluoromethyl)phenyl)cyclopentanecarboxamide]: the pIC50 in experiment [1] (setting [3]) was 5.68; in experiment [2] (setting [4]) it was 5.70.

Turning to `CC(C)(C)NS(=O)(=O)c1cc(-c2cn3nc(-c4cccnc4C(F)(F)F)ccc3n2)ccc1Cl` [Example 699, N-tert-butyl-2-chloro-5-(6-(2-(trifluoromethyl)pyridin-3-yl)imidazo[1,2-b]pyridazin-2-yl)benzenesulfonamide], the results for the pIC50 in experiment [1] (setting [3]) and in experiment [2] (setting [4]) were less than 5.00 and 5.64, respectively.

Take `COc1cc(CNc2cc(-c3cn4nc(OC)ccc4n3)ccc2C)cc(OC)c1` [Example 103, N-(3,5-dimethoxybenzyl)-5-(6-methoxyimidazo[1,2-b]pyridazin-2-yl)-2-methylaniline]: the pIC50 in experiment [1] (setting [3]) is 5.41; in experiment [2] (setting [4]), less than 5.00.

`COCCN(CCOC)c1ccc2nc(-c3ccc(C(F)(F)F)c(NC(=O)C(C)(C)C)c3)cn2n1` [Example 380, N-(5-(6-(bis(2-methoxyethyl)amino)imidazo[1,2-b]pyridazin-2-yl)-2-(trifluoromethyl)phenyl)pivalamide]: the pIC50 was 6.42 in experiment [1] (setting [3]) and 6.56 in experiment [2] (setting [4]).

Consider `Cc1ccc(-c2cn3nc(-c4cccnc4C(F)(F)F)ccc3n2)cc1-c1cscn1` [compound 512], for which the pIC50 in experiment [1] (setting [3]) was 6.69; in experiment [2] (setting [4]), 6.51.

Turning to `CCC(CO)Nc1ccc2nc(-c3ccc(C(F)(F)F)c(NC(=O)C(C)(C)C)c3)cn2n1` (stereo not drawn) [Example 303, N-(5-(6-(1-hydroxybutan-2-ylamino)imidazo[1,2-b]pyridazin-2-yl)-2-(trifluoromethyl)phenyl)pivalamide], the pIC50 in experiment [1] (setting [5]) is 5.52 to 6.52; in experiment [1] (setting [3]) it was 6.11; in experiment [2] (setting [6]) it was 5.52 to 6.52; in experiment [2] (setting [4]), 6.00; in experiment [2] (setting [7]) it was 5.52 to 6.52.

Regarding `Cc1cccnc1-c1ccc2nc(-c3ccc(C(F)(F)F)c(NC(=O)C(C)(C)C)c3)cn2n1` [Example 152, N-(5-(6-(3-methylpyridin-2-yl)imidazo[1,2-b]pyridazin-2-yl)-2-(trifluoromethyl)phenyl)pivalamide], the pIC50 in experiment [1] (setting [3]) is 6.23; in experiment [2] (setting [4]), 6.50.

Regarding `Cc1c(-c2ccccc2)nc2ccc(N3CCN(Cc4cccc(C(F)(F)F)c4)CC3)nn12` [Example 165, 3-methyl-2-phenyl-6-(4-(3-(trifluoromethyl)benzyl)piperazin-1-yl)imidazo[1,2-b]pyridazine], the pIC50 was less than 5.00 in experiment [1] (setting [3]) and 6.05 in experiment [2] (setting [4]).

`Cc1ccc(-c2cn3nc(-c4ccc(C(=O)Nc5ccccc5N)cc4)ccc3n2)cc1NC(=O)C(C)(C)C` [compound 597]: the pIC50 in experiment [1] (setting [5]) was greater than 6.52; in experiment [1] (setting [3]), 6.55; in experiment [2] (setting [6]), greater than 6.52; in experiment [2] (setting [4]) it was 7.41; in experiment [2] (setting [7]) it was greater than 6.52.

Take `Cc1ccc(-c2cn3nc(-c4cc(C#N)ccc4C)ccc3n2)cc1NC(=O)C(C)(C)C` [Example 450, N-(5-(6-(5-cyano-2-methylphenyl)imidazo[1,2-b]pyridazin-2-yl)-2-methylphenyl)pivalamide]: the pIC50 in experiment [1] (setting [5]) is greater than 6.52; in experiment [1] (setting [3]), 6.47; in experiment [2] (setting [6]), greater than 6.52; in experiment [2] (setting [4]), 6.49; in experiment [2] (setting [7]) it was greater than 6.52.

Turning to `Cc1ccc(-c2ccc3nc(-c4ccc(C(F)(F)F)c(NC(=O)C(C)(C)C)c4)cn3n2)nc1` [Example 150, N-(5-(6-(5-methylpyridin-2-yl)imidazo[1,2-b]pyridazin-2-yl)-2-(trifluoromethyl)phenyl)pivalamide], the values for the pIC50 in experiment [1] (setting [3]) and in experiment [2] (setting [4]) were 5.56 and 5.89, respectively.

With `CC(C)(C)C(=O)Nc1cc(-c2cn3nc(N4CCCC(O)C4)ccc3n2)ccc1C(F)(F)F` (stereo not drawn) [Example 471, N-(5-(6-(3-hydroxypiperidin-1-yl)imidazo[1,2-b]pyridazin-2-yl)-2-(trifluoromethyl)phenyl)pivalamide], the pIC50 in experiment [1] (setting [3]) is 6.35; in experiment [2] (hShh activation, read-out: Shh (IC50, inhibition of Hedgehog pathway activation)) it was 6.82.

For `COc1ccc2nc(-c3cc(NC(=O)C(C)(C)C)ccc3Cl)cn2n1` [Example 115, N-(4-chloro-3-(6-methoxyimidazo[1,2-b]pyridazin-2-yl)phenyl)pivalamide], the values for the pIC50 in experiment [1] (setting [3]) and in experiment [2] (setting [4]) were 5.55 and 5.54, respectively.

For the compound `CC(C)OC(=O)Nc1cc(-c2cn3nc(-c4cccnc4C(F)(F)F)ccc3n2)ccc1Cl` [Example 668, isopropyl 2-chloro-5-(6-(2-(trifluoromethyl)pyridin-3-yl)imidazo[1,2-b]pyridazin-2-yl)phenylcarbamate], the figures for the pIC50 in experiment [1] (setting [3]) and in experiment [2] (setting [4]) were 6.20 and 6.55, respectively.

On to `CN[C@@H]1CCN(c2ccc3nc(-c4ccc(C(F)(F)F)c(NC(=O)C(C)(C)C)c4)cn3n2)C1` [Example 634, (R)—N-(5-(6-(3-(methylamino)pyrrolidin-1-yl)imidazo[1,2-b]pyridazin-2-yl)-2-(trifluoromethyl)phenyl)pivalamide], for which the pIC50 in experiment [1] (setting [3]) is 7.01; in experiment [2] (setting [4]) it was 6.92.

With `CC(C)(C)C(=O)Nc1cc(-c2cn3nc(-c4cccnc4C(F)(F)F)ccc3n2)c(F)cc1Cl` [Example 650, N-(2-chloro-4-fluoro-5-(6-(2-(trifluoromethyl)pyridin-3-yl)imidazo[1,2-b]pyridazin-2-yl)phenyl)pivalamide], the pIC50 was greater than 6.52 in experiment [1] (setting [5]); 7.60 in experiment [1] (setting [3]); greater than 6.52 in experiment [2] (setting [6]); 7.00 in experiment [2] (setting [4]); greater than 6.52 in experiment [2] (setting [7]).

On to `CCCCSc1ccc2nc(-c3ccc(C)c(NC(=O)C(C)(C)C)c3)cn2n1` [Example 124, N-(5-(6-(butylthio)imidazo[1,2-b]pyridazin-2-yl)-2-methylphenyl)pivalamide], for which the pIC50 in experiment [1] (setting [5]) was 5.52 to 6.52; in experiment [1] (setting [3]) it was 6.22; in experiment [2] (setting [6]) it was 5.52 to 6.52; in experiment [2] (setting [4]), 6.05; in experiment [2] (setting [7]), 5.52 to 6.52.

With `CC(C)(C)C(=O)Nc1cc(-c2cn3nc(N4CCN(C(=N)N)CC4)ccc3n2)ccc1C(F)(F)F` [compound 570], the pIC50 in experiment [1] (setting [3]) is 6.14; in experiment [2] (setting [4]), 6.62.

These data come from patent US8871767B2, “2-arylimidazo[1,2-B]pyridazine, 2-phenylimidazo[1,2-A]pyridine, and 2-phenylimidazo[1,2-A]pyrazine derivatives” (Hengrui (USA) Ltd., priority 2010, dated 2014).
